Reference: ChEMBL document CHEMBL1201862, “PubChem BioAssay data set” (2004)
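Five concentrations, 48 hours, 96-well plates. Abbreviation: GI50, concentration required for 50% inhibition of growth.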 The source made the active and inactive calls. Cut-off read from the data, not from the text of the source: active = GI50 up to about 1.1 µM and inactive = higher.

Experiments:
Experiment in all cases: DTP human tumour cell line panel, 48 h
SF-539 = tested on: SF-539
DU-145 = tested on: DU-145
RPMI-8226 = tested on: RPMI-8226
786-0 = tested on: 786-0
RXF 393 = tested on: RXF 393
OVCAR-4 = tested on: OVCAR-4
HCT-15 = tested on: HCT-15
ACHN = tested on: ACHN
SK-MEL-5 = tested on: SK-MEL-5
SNB-19 = tested on: SNB-19
A549 = tested on: A549
PC-3 = tested on: PC-3
CAKI-1 = tested on: CAKI-1
HOP-62 = tested on: HOP-62
UACC-62 = tested on: UACC-62
HL-60 = tested on: HL-60
IGROV-1 = tested on: IGROV-1
UO-31 = tested on: UO-31
NCI-H460 = tested on: NCI-H460
U-251 = tested on: U-251
HCC 2998 = tested on: HCC 2998
SK-MEL-2 = tested on: SK-MEL-2
SF-268 = tested on: SF-268
EKVX = tested on: EKVX
OVCAR-8 = tested on: OVCAR-8
SW-620 = tested on: SW-620
SK-MEL-28 = tested on: SK-MEL-28
HCT-116 = tested on: HCT-116
T47D = tested on: T47D
TK-10 = tested on: TK-10
K562 = tested on: K562
CCRF-CEM = tested on: CCRF-CEM
NCI/ADR-RES = tested on: NCI/ADR-RES
SK-OV-3 = tested on: SK-OV-3
OVCAR-5 = tested on: OVCAR-5
KM12 = tested on: KM12
MDA-MB-435 = tested on: MDA-MB-435
SNB-75 = tested on: SNB-75
M14 = tested on: M14
UACC-257 = tested on: UACC-257
HT-29 = tested on: HT-29
MOLT-4 = tested on: MOLT-4
MDA-MB-231 = tested on: MDA-MB-231
Hs-578T = tested on: Hs-578T
NCI-H226 = tested on: NCI-H226
SR = tested on: SR
MDA-N = tested on: MDA-N
SN12C = tested on: SN12C
COLO 205 = tested on: COLO 205
SF-295 = tested on: SF-295
MCF7 = tested on: MCF7
LOX IMVI = tested on: LOX IMVI
A498 = tested on: A498
NCI-H522 = tested on: NCI-H522
OVCAR-3 = tested on: OVCAR-3
NCI-H23 = tested on: NCI-H23

Measured: GI50

COc1ccc(C(=O)/C=C/c2ccc(OCCCCCCCCCCOc3ccc(/C=C/C(=O)c4ccc(OC)cc4)cc3)cc2)cc1
inactive: SF-539 > 100 µM | DU-145 > 100 µM | RPMI-8226 > 100 µM | 786-0 > 100 µM | RXF 393 > 100 µM | OVCAR-4 > 100 µM | ACHN > 100 µM | SK-MEL-5 > 100 µM | SNB-19 > 100 µM | A549 > 100 µM | PC-3 > 100 µM | CAKI-1 > 100 µM | HOP-62 > 100 µM | UACC-62 > 100 µM | HL-60 > 100 µM | IGROV-1 > 100 µM | UO-31 > 100 µM | NCI-H460 > 100 µM | U-251 > 100 µM | HCC 2998 > 100 µM | SK-MEL-2 > 100 µM | SF-268 > 100 µM | EKVX > 100 µM | OVCAR-8 > 100 µM | SW-620 > 100 µM | SK-MEL-28 > 100 µM | HCT-116 > 100 µM | T47D > 100 µM | TK-10 > 100 µM | K562 > 100 µM | CCRF-CEM > 100 µM | NCI/ADR-RES > 100 µM | SK-OV-3 > 100 µM | OVCAR-5 > 100 µM | KM12 > 100 µM | MDA-MB-435 > 100 µM | SNB-75 69.7 µM | M14 > 100 µM | UACC-257 > 100 µM | HT-29 > 100 µM | MOLT-4 > 100 µM | MDA-MB-231 > 100 µM | Hs-578T > 100 µM | NCI-H226 > 100 µM | SR > 100 µM | MDA-N > 100 µM | SN12C > 100 µM | COLO 205 > 100 µM | SF-295 > 100 µM | MCF7 > 100 µM
> 100 µM: HCT-15

CC(=O)OC1C(Oc2c(C)cc3c(c2O)[C@@H](C)CC[C@@H]3[C@@H](C)CCC=C(C)C)OCC(O)C1O (stereo not given in full)
17.5 µM: HCT-15
inactive: SF-539 18.5 µM | LOX IMVI 18.2 µM | DU-145 16.2 µM | 786-0 18.4 µM | ACHN 20.2 µM | SK-MEL-5 18.1 µM | SNB-19 19.6 µM | A549 14.8 µM | PC-3 20.3 µM | CAKI-1 19.5 µM | HOP-62 17.3 µM | UACC-62 18.3 µM | HL-60 21.4 µM | IGROV-1 19.1 µM | UO-31 17.3 µM | NCI-H460 16.9 µM | U-251 17.3 µM | SK-MEL-2 25.3 µM | SF-268 18.2 µM | OVCAR-8 21.9 µM | A498 20.3 µM | SW-620 18.7 µM | HCT-116 18.2 µM | T47D 22.4 µM | K562 13.5 µM | CCRF-CEM 22.8 µM | NCI/ADR-RES 21.1 µM | SK-OV-3 19.3 µM | OVCAR-5 16.9 µM | KM12 15.9 µM | MDA-MB-435 14.6 µM | M14 16.9 µM | NCI-H522 21.2 µM | UACC-257 18.4 µM | OVCAR-3 15.7 µM | NCI-H23 17.9 µM | HT-29 14.4 µM | MOLT-4 22.6 µM | MDA-MB-231 19.8 µM | Hs-578T 21.5 µM | NCI-H226 17.6 µM | SR 22.9 µM | MDA-N 21 µM | SN12C 17.5 µM | COLO 205 16.6 µM | SF-295 19.4 µM | MCF7 20.9 µM

CC1(C)CC(=O)c2c(nc3c(ccc4ccccc43)c2-c2ccc(NC(=O)CCCC(=O)Nc3ccc(-c4c5c(nc6c4ccc4ccccc46)CC(C)(C)CC5=O)cc3)cc2)C1
46.5 µM: HCT-15
inactive: SF-539 > 100 µM | LOX IMVI > 100 µM | DU-145 > 100 µM | RPMI-8226 > 100 µM | 786-0 > 100 µM | RXF 393 > 100 µM | ACHN > 100 µM | SK-MEL-5 > 100 µM | SNB-19 > 100 µM | A549 > 100 µM | PC-3 > 100 µM | CAKI-1 > 100 µM | HOP-62 > 100 µM | HL-60 > 100 µM | IGROV-1 58.5 µM | UO-31 > 100 µM | NCI-H460 > 100 µM | U-251 > 100 µM | SK-MEL-2 > 100 µM | SF-268 > 100 µM | EKVX > 100 µM | OVCAR-8 > 100 µM | SW-620 > 100 µM | SK-MEL-28 > 100 µM | HCT-116 > 100 µM | T47D > 100 µM | TK-10 > 100 µM | K562 > 100 µM | CCRF-CEM > 100 µM | NCI/ADR-RES > 100 µM | SK-OV-3 > 100 µM | OVCAR-5 > 100 µM | KM12 > 100 µM | MDA-MB-435 > 100 µM | SNB-75 > 100 µM | M14 > 100 µM | NCI-H522 > 100 µM | UACC-257 > 100 µM | OVCAR-3 > 100 µM | HT-29 > 100 µM | MOLT-4 > 100 µM | MDA-MB-231 > 100 µM | Hs-578T > 100 µM | NCI-H226 > 100 µM | SR > 100 µM | MDA-N > 100 µM | SN12C > 100 µM | COLO 205 > 100 µM | SF-295 > 100 µM | MCF7 > 100 µM
